Results as given in patent publication EP3046573B1, “AMYLIN ANALOGUES” (Zealand Pharma A/S, priority 2013, dated 2015).
Like-named read-outs stand apart in the source and are kept apart here. Numbered stars: 1 amine (or outer) side, 2 acyl side, 3 side chain; on linkers, the order of the positions; unused ones are H or OH. Bridge positions count the residues as written; N and C are the ends. Square brackets hold non-standard residues; d marks the D form. Peptide text beside a SMILES is read from it. * marks the point of attachment. C20 diacid = O=C(O)CCCCCCCCCCCCCCCCCCC(=O)*; γGlu = O=C(O)[C@H](CCC(=O)[*:2])N[*:1]; NMeI = CC[C@H](C)[C@H](NC)C(=O)O; Sar = CNCC(=O)O

Experiments:
[1] = target: T1, human calcitonin receptor (hCTR2) (Homo sapiens, UniProt P30988); assay: hCTR2 assay: induction of cAMP (AlphaScreen cAMP Assay kit) in COS7 cells expressing hCTR2; format: cell-based
T1 construct: expressed in transfected cells
T1 sequence (P30988 25-474): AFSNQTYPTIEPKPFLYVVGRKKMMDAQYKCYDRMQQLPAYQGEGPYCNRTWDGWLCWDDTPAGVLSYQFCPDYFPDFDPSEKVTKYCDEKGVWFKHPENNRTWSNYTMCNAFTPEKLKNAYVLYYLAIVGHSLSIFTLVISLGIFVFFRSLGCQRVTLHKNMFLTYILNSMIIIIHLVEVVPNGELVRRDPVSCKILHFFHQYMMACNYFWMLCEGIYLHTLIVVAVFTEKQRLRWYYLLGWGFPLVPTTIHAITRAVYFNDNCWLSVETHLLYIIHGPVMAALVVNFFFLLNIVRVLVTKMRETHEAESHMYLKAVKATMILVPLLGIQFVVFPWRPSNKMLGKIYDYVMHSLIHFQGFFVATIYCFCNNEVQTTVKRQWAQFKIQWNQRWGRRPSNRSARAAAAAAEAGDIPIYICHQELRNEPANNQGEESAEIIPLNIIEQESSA
Outline: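 Functional agonism is measured as cAMP accumulation in a COS7 line stably transfected with hCTR2, lacking endogenous RAMPs. Peptides act for 15 min at 37° C with IBMX present, and curves are fitted with a 4-parameter logistic model.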

[2] = Solubility assessment (turbidity absorbance at 325 nm); format: physicochemical; settings: stock 2 mg/ml diluted 1:1, ambient temperature (typically 25°C), n=1; for Solubility, Acetate buffer pH 4: 100 mM acetate buffer pH 4.0; for Solubility, Acetate buffer pH 5: 100 mM acetate buffer pH 5.0; for Solubility, Histidine buffer pH 6: 100 mM histidine buffer pH 6.0; for Solubility, Histidine buffer pH 7: 100 mM histidine buffer pH 7.0; for Solubility, Phosphate buffer pH 6: 100 mM phosphate buffer pH 6.0; for Solubility, Phosphate buffer pH 7: 100 mM phosphate buffer pH 7.0; for Solubility, Phosphate buffer pH 7.5: 100 mM phosphate buffer pH7.5
Outline: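 Stock 2 mg/ml peptide, H2O/HCl pH 2.5; 1:1 into 100 mM buffers: acetate pH 4.0/5.0, His pH 6.0/7.0, phosphate pH 6.0/7.0/7.5. A280 + A325, ~25°C, n=1. Soluble ≥ 1 mg/ml if A325 ≤ 0.02.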

[3] = cAMP induction in COS7 cells expressing hCTR2, average of a minimum of 3 determinations, read-out: hCTR2 EC50

| EC50 [1, 3] | Solubility, Acetate buffer pH 4 [2] | Solubility, Acetate buffer pH 5 [2] | Solubility, Histidine buffer pH 6 [2] | Solubility, Histidine buffer pH 7 [2] | Solubility, Phosphate buffer pH 6 [2] | Solubility, Phosphate buffer pH 7 [2] | Solubility, Phosphate buffer pH 7.5 [2] | SMILES | EC50 [1] |
| --- | --- | --- | --- | --- | --- | --- | --- | --- | --- |
| 0.093 nM | II (II indicates solubility ≤ 1 mg/ml) | II (II indicates solubility ≤ 1 mg/ml) | II (II indicates solubility ≤ 1 mg/ml) | II (II indicates solubility ≤ 1 mg/ml) | II (II indicates solubility ≤ 1 mg/ml) | II (II indicates solubility ≤ 1 mg/ml) | II (II indicates solubility ≤ 1 mg/ml) | CC[C@H](C)[C@@H](C(=O)N[C@@H](CC(C)C)C(=O)N[C@@H](CO)C(=O)N[C@@H](CO)C(=O)N[C@H](C(=O)N[C@@H](CC(N)=O)C(=O)N[C@H](C(=O)NCC(=O)N[C@@H](CO)C(=O)N[C@@H](CC(N)=O)C(=O)N[C@H](C(=O)N1CCC[C@H]1C(N)=O)[C@@H](C)O)C(C)C)[C@@H](C)O)N(C)C(=O)CN(C)C(=O)[C@H](CC(N)=O)NC(=O)[C@H](CC(N)=O)NC(=O)[C@H](CO)NC(=O)[C@H](CO)NC(=O)[C@H](Cc1c[nH]cn1)NC(=O)[C@H](Cc1c[nH]cn1)NC(=O)[C@H](CC(C)C)NC(=O)[C@H](Cc1ccccc1)NC(=O)[C@H](CCC(=O)O)NC(=O)[C@H](C)NC(=O)[C@H](CC(C)C)NC(=O)[C@H](CCCNC(=N)N)NC(=O)[C@H](CCC(N)=O)NC(=O)[C@@H](NC(=O)[C@H](C)NC(=O)[C@@H]1CSSC[C@H](NC(=O)[C@H](CCCNC(=N)N)NC(=O)CC[C@H](NC(=O)CCCCCCCCCCCCCCCCCCC(=O)O)C(=O)O)C(=O)N[C@@H](CC(N)=O)C(=O)N[C@@H]([C@@H](C)O)C(=O)N[C@@H](C)C(=O)N[C@@H]([C@@H](C)O)C(=O)N1)[C@@H](C)O [Compound 51, [19CD]-isoGlu-RC()NTATC()ATQRLAEFLHHSSNN-Gly(Me)-Ile(Me)-LSSTNVGSNTP-NH2] ({C20 diacid-γGlu}-RCNTATCATQRLAEFLHHSSNN[Sar][NMeI]LSSTNVGSNTP-NH2; disulfide 2-7) | – |
| 0.076 nM | SS (SS indicates solubility ≥ 1mg/ml) | SS (SS indicates solubility ≥ 1mg/ml) | SS (SS indicates solubility ≥ 1mg/ml) | SS (SS indicates solubility ≥ 1mg/ml) | SS (SS indicates solubility ≥ 1mg/ml) | SS (SS indicates solubility ≥ 1mg/ml) | SS (SS indicates solubility ≥ 1mg/ml) | CC[C@H](C)[C@@H](C(=O)N[C@@H](CC(C)C)C(=O)N[C@@H](CO)C(=O)N[C@@H](CO)C(=O)N[C@H](C(=O)N[C@@H](CC(N)=O)C(=O)N[C@H](C(=O)NCC(=O)N[C@@H](CO)C(=O)N[C@@H](CC(N)=O)C(=O)N[C@H](C(=O)N1CCC[C@H]1C(N)=O)[C@@H](C)O)C(C)C)[C@@H](C)O)N(C)C(=O)[C@H](C)NC(=O)CN(C)C(=O)[C@H](Cc1ccccc1)NC(=O)[C@H](CO)NC(=O)[C@H](CO)NC(=O)[C@H](Cc1c[nH]cn1)NC(=O)[C@H](Cc1c[nH]cn1)NC(=O)[C@H](CC(C)C)NC(=O)[C@H](Cc1ccccc1)NC(=O)[C@H](CCC(=O)O)NC(=O)[C@H](C)NC(=O)[C@H](CC(C)C)NC(=O)[C@H](CCCNC(=N)N)NC(=O)[C@H](CCC(N)=O)NC(=O)[C@@H](NC(=O)[C@H](C)NC(=O)[C@@H]1CSSC[C@H](NC(=O)[C@H](CCCNC(=N)N)NC(=O)CC[C@H](NC(=O)CCCCCCCCCCCCCCCCCCC(=O)O)C(=O)O)C(=O)N[C@@H](CC(N)=O)C(=O)N[C@@H]([C@@H](C)O)C(=O)N[C@@H](C)C(=O)N[C@@H]([C@@H](C)O)C(=O)N1)[C@@H](C)O [Compound 52, [19CD]-isoGlu-RC()NTATC()ATQRLAEFLHHSSF-Gly(Me)-A-Ile(Me)-LSSTNVGSNTP-NH2] ({C20 diacid-γGlu}-RCNTATCATQRLAEFLHHSSF[Sar]A[NMeI]LSSTNVGSNTP-NH2; disulfide 2-7) | – |
| 0.12 nM | SS (SS indicates solubility ≥ 1mg/ml) | SS (SS indicates solubility ≥ 1mg/ml) | SS (SS indicates solubility ≥ 1mg/ml) | SS (SS indicates solubility ≥ 1mg/ml) | SS (SS indicates solubility ≥ 1mg/ml) | SS (SS indicates solubility ≥ 1mg/ml) | SS (SS indicates solubility ≥ 1mg/ml) | CC[C@H](C)[C@@H](C(=O)N[C@@H](CC(C)C)C(=O)N[C@@H](CO)C(=O)N[C@@H](CO)C(=O)N[C@H](C(=O)N[C@@H](CC(N)=O)C(=O)N[C@H](C(=O)NCC(=O)N[C@@H](CO)C(=O)N[C@@H](CC(N)=O)C(=O)N[C@H](C(=O)N1CCC[C@H]1C(N)=O)[C@@H](C)O)C(C)C)[C@@H](C)O)N(C)C(=O)CN(C)C(=O)[C@H](Cc1ccccc1)NC(=O)[C@H](CO)NC(=O)[C@H](CO)NC(=O)[C@H](Cc1c[nH]cn1)NC(=O)[C@H](Cc1c[nH]cn1)NC(=O)[C@H](CC(C)C)NC(=O)[C@H](Cc1ccccc1)NC(=O)[C@H](CCC(=O)O)NC(=O)[C@H](C)NC(=O)[C@H](CC(C)C)NC(=O)[C@H](CCCNC(=N)N)NC(=O)[C@H](CCC(N)=O)NC(=O)[C@@H](NC(=O)[C@H](C)NC(=O)[C@@H]1CSSC[C@H](NC(=O)[C@H](CCCNC(=N)N)NC(=O)CC[C@H](NC(=O)CCCCCCCCCCCCCCCCCCC(=O)O)C(=O)O)C(=O)N[C@@H](CC(N)=O)C(=O)N[C@@H]([C@@H](C)O)C(=O)N[C@@H](C)C(=O)N[C@@H]([C@@H](C)O)C(=O)N1)[C@@H](C)O [Compound 53, [19CD]-isoGlu-RC()NTATC()ATQRLAEFLHHSSF-Gly(Me)-Ile(Me)-LSSTNVGSNTP-NH2] ({C20 diacid-γGlu}-RCNTATCATQRLAEFLHHSSF[Sar][NMeI]LSSTNVGSNTP-NH2; disulfide 2-7) | – |

| SMILES | EC50 [1, 3] | Solubility, Acetate buffer pH 4 [2] | Solubility, Acetate buffer pH 5 [2] | Solubility, Histidine buffer pH 6 [2] | Solubility, Histidine buffer pH 7 [2] | Solubility, Phosphate buffer pH 6 [2] | Solubility, Phosphate buffer pH 7 [2] | Solubility, Phosphate buffer pH 7.5 [2] | EC50 [1] |
| --- | --- | --- | --- | --- | --- | --- | --- | --- | --- |
| CC[C@H](C)[C@@H](C(=O)N[C@@H](CO)C(=O)N[C@@H](CO)C(=O)N[C@H](C(=O)N[C@@H](CC(N)=O)C(=O)N[C@H](C(=O)NCC(=O)N[C@@H](CO)C(=O)N[C@@H](CC(N)=O)C(=O)N[C@H](C(=O)N1CCC[C@H]1C(N)=O)[C@@H](C)O)C(C)C)[C@@H](C)O)N(C)C(=O)[C@H](C)NC(=O)CN(C)C(=O)[C@H](Cc1ccccc1)NC(=O)[C@H](CC(N)=O)NC(=O)[C@H](CC(N)=O)NC(=O)[C@H](CO)NC(=O)[C@H](CO)NC(=O)[C@H](Cc1c[nH]cn1)NC(=O)[C@H](Cc1c[nH]cn1)NC(=O)[C@H](CC(C)C)NC(=O)[C@H](Cc1ccccc1)NC(=O)[C@H](CCC(=O)O)NC(=O)[C@H](C)NC(=O)[C@H](CC(C)C)NC(=O)[C@H](CCCNC(=N)N)NC(=O)[C@H](CCC(N)=O)NC(=O)[C@@H](NC(=O)[C@H](C)NC(=O)[C@@H]1CSSC[C@H](NC(=O)[C@H](CCCNC(=N)N)NC(=O)CC[C@H](NC(=O)CCCCCCCCCCCCCCCCCCC(=O)O)C(=O)O)C(=O)N[C@@H](CC(N)=O)C(=O)N[C@@H]([C@@H](C)O)C(=O)N[C@@H](C)C(=O)N[C@@H]([C@@H](C)O)C(=O)N1)[C@@H](C)O [Compound 54, [19CD]-isoGlu-RC()NTATC()ATQRLAEFLHHSSNNF-Gly(Me)-A-Ile(Me)-SSTNVGSNTP-NH2] ({C20 diacid-γGlu}-RCNTATCATQRLAEFLHHSSNNF[Sar]A[NMeI]SSTNVGSNTP-NH2; disulfide 2-7) | – | SS (SS indicates solubility ≥ 1mg/ml) | SS (SS indicates solubility ≥ 1mg/ml) | SS (SS indicates solubility ≥ 1mg/ml) | SS (SS indicates solubility ≥ 1mg/ml) | SS (SS indicates solubility ≥ 1mg/ml) | SS (SS indicates solubility ≥ 1mg/ml) | SS (SS indicates solubility ≥ 1mg/ml) | 0.091 nM |
